This test has as its system TNB/ethanol colitis. The test is described as follows: Intracolonic administration in rat model of chronic colitis (TNB/ethanol): macroscopic colonic damage. The settings on record: for macroscopic damage score: after four weeks of treatment, daily enema 50 mg/kg (Formula I (1-1): zileuton equivalent), p=0.026. In kind it is in vivo, Sprague-Dawley rats. The method, then:
Female virgin Sprague-Dawley rats weighing 200-250 g were used in this study. The animals were maintained in a restricted access room with controlled temperature (23° C.) and light/dark cycle (16 h:8 h). The rats were housed in individual isolated rack mounted wire cages.
TNB/ethanol colitis was induced in 90 rats. Animals were thereafter randomised into four therapeutic groups to receive daily, from day 1 (24 hours after induction of colitis):
Group A (n=30)−0.25 ml of vehicle solution enema (1-5% carboxymethylcellulose in saline serum) (placebo group).
Group B (n=30)−0.25 ml of the vehicle solution enema added with 50 mg/kg of body weight of 5-ASA.
Group C (n=30)−0-25 ml of the vehicle solution enema added with 50 mg/kg of body weight of zileuton.
Group D (n=30)−0-25 ml of the vehicle solution enema added with 50 mg/kg of body weight of Formula I (1-1) equivalent of zileuton.
In addition, sham colitis was induced, by intrarectal administration of 0-25 ml of 0.9°/0 saline, in 10 rats (control group). At day 1 and 3, and at weeks 1, 2, and 4, 10 rats from groups A, B, C and D were randomly selected for the assessment of eicosanoid release in the lumen of the colon by intracolonic dialysis. Rats were anaesthetised with 100 mg of intraperitoneal thiopental and intracolonic dialysis was performed using hydrated Visking seamless cellulose tubing (8/32, 6-3 mm diameter, 7 cm long; Medicell International, London) attached by a 10 cm polyurethane cannula to an external syringe. After inserting the entire cannula into the distal colon, the dialysis bag was filled with 1 ml of dialysis solution, consisting of 0.3°/o bovine serum albumin in a solution of 120 mmol/1 NaCl and 30 mmol/1 KHCO3 adjusted to pH 7.90. One hour later, the fluid was withdrawn and immediately stored at −30 C. The volume of the dialysate recovered at the end of the one hour period was higher than 90%. In the control group (n=10), an intracolonic dialysis was performed in the same way 24 hours after the sham colitis induction. The day after the dialysis was performed at weeks 1, 2, and 4, the same animals were given a distal colectomy under total anaesthesia with 100 mg of intraperitoneal thiopental, to assess colonic inflammation macroscopically and histologically. The excised colon was opened longitudinally, rinsed with normal saline, pinned out on a wax block, and assigned a code number. Mucosal damage was assessed macroscopically as described later. Afterwards, three tissue specimens (2×10 mm) were obtained from the colon. When no severely visible inflammation was present, the specimens were taken from the regions 1 cm, 3 cm, and 8 cm proximal to the anus. When visible lesions were present, the specimens were taken from the affected regions. Tissue samples were fixed in formaldehyde and routinely processed. […]

Molecules are shown by their SMILES.

Take `Nc1ccc(O)c(C(=O)O)c1` [5-ASA]: the macroscopic damage score is given as 7.3 (0.7).
For the molecule `CC/C=C\C/C=C\C/C=C\C/C=C\C/C=C\CCCC(=O)NC(=O)N(O)C(C)c1cc2ccccc2s1` (stereo not shown) [Formula I (1-1)], the macroscopic damage score is 4.36 (0.6). In addition, under “at four weeks, compared with 5-ASA, zileuton and placebo”, the “all parameters measured by the score, mainly the development of strictures” value is given as “improved”.
Consider `CC(c1cc2ccccc2s1)N(O)C(N)=O` (stereo not shown) [zileuton], for which the macroscopic damage score was 5.6 (0.7).

For the origin of these results see patent US9394288B2, “Compositions and methods for the treatment of asthma and allergy” (CELLIX BIO PRIVATE LIMITED, priority 2012, dated 2016).
